Experimental data reported in patent US7169806B2, “Antidiabetic agents” (Ferring BV, priority 1999, dated 2007).

Tested on: male Zucker Fatty Rats
Assay: In vivo activity in glucose tolerance model (oral glucose challenge)
Set-up: species or system rat
Settings: mean ± SE, n = 4; for Blood glucose, t = 10: t = 10 minutes; for Blood glucose, t = 20: t = 20 minutes; for Blood glucose, t = 30: t = 30 minutes; for Blood glucose, t = 60: t = 60 minutes; for Blood glucose, t = 120: t = 120 minutes
Protocol: The activity of the compounds was investigated in male Zucker Fatty Rats between 10 and 20 weeks of age. The animals were fasted overnight and then administered with the test compound (10 mg/kg) as a solution by oral gavage. One hour later hour a blood sample (200 μl) is taken from the tail vein to establish a baseline (t=0) glucose level, then the animals are given glucose (1 g/kg as a 40% wt/vol solution) orally. Further blood samples are taken at t=10, 20, 30, 60 and 120 minutes. Glucose is determined by an enzymatic assay.
In a separate experiment the test compound was given at the same dose (10 mg/kg) but 12 hours before the oral glucose challenge.

[1] = 10 mg/kg oral gavage 1 hour before oral glucose (1 g/kg), baseline t = 0
[2] = 10 mg/kg oral gavage 1 hour before oral glucose (1 g/kg)
[3] = 10 mg/kg given 12 hours before the oral glucose challenge

Row | Structure (SMILES) | Blood glucose, t = 0 [1] | Blood glucose, t = 10 [2] | Blood glucose, t = 20 [2] | Blood glucose, t = 30 [2] | Blood glucose, t = 60 [2] | Blood glucose, t = 120 [2] | AUC (area under the concentration-time curve) of blood glucose [3] | Blood glucose, t = 0 (10 mg/kg given 12 hours before the oral glucose challenge, t = 0) | Blood glucose, t = 10 [3] | Blood glucose, t = 20 [3] | Blood glucose, t = 30 [3] | Blood glucose, t = 60 [3] | Blood glucose, t = 120 [3]
1 | CC[C@H](C)[C@H](NC(=O)OC(C)OC(C)=O)C(=O)N1CCC[C@H]1C#N (stereo partly drawn) [Example 2, (2S)-1-(N′-(1″-Acetoxyethoxycarbonyl)isoleucyl)pyrrolidine-2-carbonitrile] | 80.2 ± 4.2 mg/dL | 122.2 ± 7.8 mg/dL | 117.8 ± 4.8 mg/dL | 104.4 ± 5.6 mg/dL | 117.6 ± 6.7 mg/dL | 111.3 ± 12.1 mg/dL | – | – | – | – | – | – | –
2 | CC[C@H](C)[C@H](N)C(=O)N1CCC[C@H]1C#N [Reference, (2S)-1-(Isoleucyl)pyrrolidine-2-carbonitrile, reference compound] | 91.4 ± 5.2 mg/dL | 125.8 ± 8.9 mg/dL | 110.0 ± 21.5 mg/dL | 110.9 ± 4.4 mg/dL | 112.2 ± 7.5 mg/dL | 108.7 ± 8.9 mg/dL | – | – | – | – | – | – | –
3 | CC(=O)OC(C)OC(=O)N[C@H](C(=O)N1CCC[C@H]1C#N)C(C)(C)C (stereo partly drawn) [Example 1, (2S)-1-((2′S)-2′-(1″-Acetoxyethoxycarbonylamino)-3′,3′-dimethylbutanoyl)pyrrolidine-2-carbonitrile] | – | – | – | – | – | – | 2430 ± 591 | 83.7 ± 3.8 mg/dL | 113.5 ± 10.8 mg/dL | 111.3 ± 9.9 mg/dL | 91.9 ± 11.8 mg/dL | 99.3 ± 10.0 mg/dL | 116.9 ± 14.4 mg/dL
4 | CC[C@H](C)[C@H](NC(=O)CN)C(=O)N1CCC[C@H]1C#N [Example 5, (2S)-1-(Glycylisoleucyl)pyrrolidine-2-carbonitrile] | 80.5 ± 1.4 mg/dL | 141.3 ± 14.5 mg/dL | 134.2 ± 10.3 mg/dL | 129.2 ± 8.2 mg/dL | 114.6 ± 8.1 mg/dL | 121.2 ± 5.8 mg/dL | – | – | – | – | – | – | –
5 | CC[C@H](C)[C@H](NC(=O)OC)C(=O)N1CCC[C@H]1C#N [Example 3, (2S)-1-(N′-(Methoxycarbonyl)isoleucyl)pyrrolidine-2-carbonitrile] | 86.4 ± 3.4 mg/dL | 175.1 ± 3.8 mg/dL | 148.5 ± 23.2 mg/dL | 136.7 ± 16.9 mg/dL | 120.6 ± 8.3 mg/dL | 101.9 ± 4.5 mg/dL | – | – | – | – | – | – | –
